Measured values as given in patent US20250353891A1 (MEDIMMUNE LIMITED, priority 2022, published 2025).
Starred links: 1 amine or outer side, 2 acyl side, 3 side chain; linkers in the order of their positions; H or OH if unused. Non-standard residues stand in square brackets, D forms with d. Residues, ends and D or L forms follow the SMILES beside them. Groups on a side chain read outwards from the residue. *: point of attachment. C20 diacid = O=C(O)CCCCCCCCCCCCCCCCCCC(=O)*; C18 diacid = O=C(O)CCCCCCCCCCCCCCCCC(=O)*; γGlu = O=C(O)[C@H](CCC(=O)[*:2])N[*:1]; αMeF = C[C@](N)(Cc1ccccc1)C(=O)O; AEEA = NCCOCCOCC(=O)O; Aib = CC(C)(N)C(=O)O

Legend:
[1] = molecular target: human GLP-1 receptor (hGLP-1R) (Homo sapiens, UniProt P43220); test: cAMP production (HTRF) in CHO cells expressing hGLP-1R; assay type: cell-based; design: expressed in transfected cells; settings: for EC50: Table 7, peptides modified at position 20, cAMP in CHO hGLP-1R cells, geometric mean, read-out: hGLP-1R EC50; for % Relative Potency Ratio: Table 7, % GLP-1R activity relative to GLP-1 / % GlucR activity relative to glucagon
Outline: (§1)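 Potency values represent EC50 from 4-parameter logistic curves of HTRF % Delta F signal. Receptor-expressing CHO cells (hGCGR 2×10^5 cells/mL, hGLP-1R 1×10^5 cells/mL) were exposed for 30 min at room temperature before two-step cAMP detection.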

[2] = molecular target: human glucagon receptor (hGCGR) (Homo sapiens, UniProt P47871); test: cAMP production (HTRF) in CHO cells expressing hGCGR; assay type: cell-based; design: expressed in transfected cells; settings: Table 7, peptides modified at position 20; cAMP in CHO hGCGR cells; geometric mean; read-out: hGluc-R EC50
Outline: as §1

human GLP-1 receptor (hGLP-1R), sequence (P43220 24-463): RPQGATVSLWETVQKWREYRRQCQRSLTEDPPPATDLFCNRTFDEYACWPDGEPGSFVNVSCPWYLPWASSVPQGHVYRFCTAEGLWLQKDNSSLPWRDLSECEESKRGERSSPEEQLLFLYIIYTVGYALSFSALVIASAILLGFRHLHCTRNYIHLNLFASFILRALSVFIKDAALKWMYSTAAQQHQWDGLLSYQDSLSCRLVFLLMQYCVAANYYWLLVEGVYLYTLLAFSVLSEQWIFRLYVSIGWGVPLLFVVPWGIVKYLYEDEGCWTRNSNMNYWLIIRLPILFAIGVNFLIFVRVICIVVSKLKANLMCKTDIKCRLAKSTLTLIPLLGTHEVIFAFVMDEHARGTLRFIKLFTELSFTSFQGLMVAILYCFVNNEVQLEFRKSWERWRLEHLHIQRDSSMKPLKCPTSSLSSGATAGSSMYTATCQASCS
human glucagon receptor (hGCGR), sequence (P47871 26-477): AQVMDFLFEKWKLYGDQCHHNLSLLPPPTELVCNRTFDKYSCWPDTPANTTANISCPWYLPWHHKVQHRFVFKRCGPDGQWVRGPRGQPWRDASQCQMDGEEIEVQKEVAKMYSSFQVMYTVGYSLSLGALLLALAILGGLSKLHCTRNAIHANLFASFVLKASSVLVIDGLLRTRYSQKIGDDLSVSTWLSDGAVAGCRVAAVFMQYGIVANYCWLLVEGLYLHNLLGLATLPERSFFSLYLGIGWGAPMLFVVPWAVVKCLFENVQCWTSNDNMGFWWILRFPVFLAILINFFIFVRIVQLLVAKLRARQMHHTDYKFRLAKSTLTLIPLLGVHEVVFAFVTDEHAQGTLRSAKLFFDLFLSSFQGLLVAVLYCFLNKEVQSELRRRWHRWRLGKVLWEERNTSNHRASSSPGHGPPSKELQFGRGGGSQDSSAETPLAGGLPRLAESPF

| EC50 [1] | % Relative Potency Ratio [1] | EC50 [2] | SMILES |
| --- | --- | --- | --- |
| 0.0827 nM | 0.7 | 0.0274 nM | CC[C@H](C)[C@H](NC(=O)C(C)(C)NC(=O)[C@H](CCC(=O)O)NC(=O)[C@@H](NC(=O)[C@](C)(Cc1ccccc1)NC(=O)[C@H](CC(=O)O)NC(=O)[C@H](CCCCNC(=O)COCCOCCNC(=O)COCCOCCNC(=O)CC[C@H](NC(=O)CCCCCCCCCCCCCCCCC(=O)O)C(=O)O)NC(=O)[C@H](C)NC(=O)[C@H](C)NC(=O)[C@H](CCCNC(=N)N)NC(=O)[C@H](CO)NC(=O)[C@H](CC(=O)O)NC(=O)[C@H](CC(C)C)NC(=O)[C@](C)(Cc1ccccc1)NC(=O)[C@H](CCCCN)NC(=O)[C@H](CO)NC(=O)[C@@H](NC(=O)[C@H](CC(=O)O)NC(=O)[C@H](CO)NC(=O)[C@@H](NC(=O)[C@](C)(Cc1ccccc1)NC(=O)[C@H](CO)NC(=O)CNC(=O)[C@H](Cc1c[nH]cn1)NC(=O)C(C)(C)NC(=O)[C@@H](N)Cc1c[nH]cn1)[C@@H](C)O)C(C)C)C(C)C)C(=O)N[C@@H](C)C(=O)N[C@@H](CC(N)=O)C(=O)N[C@H](C(N)=O)[C@@H](C)O [Peptide 226] (H-H[Aib]HGS[αMeF]TSDVSK[αMeF]LDSRAAK([AEEA-AEEA-γGlu-C18 diacid])D[αMeF]VE[Aib]IANT-NH2) |
| 0.0705 nM | 0.8 | 0.0272 nM | CC[C@H](C)[C@H](NC(=O)C(C)(C)NC(=O)[C@H](C)NC(=O)[C@@H](NC(=O)[C@](C)(Cc1ccccc1)NC(=O)[C@H](CC(=O)O)NC(=O)[C@H](CCCCNC(=O)COCCOCCNC(=O)COCCOCCNC(=O)CC[C@H](NC(=O)CCCCCCCCCCCCCCCCC(=O)O)C(=O)O)NC(=O)[C@H](C)NC(=O)[C@H](C)NC(=O)[C@H](CCCNC(=N)N)NC(=O)[C@H](CO)NC(=O)[C@H](CC(=O)O)NC(=O)[C@H](CC(C)C)NC(=O)[C@](C)(Cc1ccccc1)NC(=O)[C@H](CCCCN)NC(=O)[C@H](CO)NC(=O)[C@@H](NC(=O)[C@H](CC(=O)O)NC(=O)[C@H](CO)NC(=O)[C@@H](NC(=O)[C@](C)(Cc1ccccc1)NC(=O)[C@H](CO)NC(=O)CNC(=O)[C@H](Cc1c[nH]cn1)NC(=O)C(C)(C)NC(=O)[C@@H](N)Cc1c[nH]cn1)[C@@H](C)O)C(C)C)[C@@H](C)CC)C(=O)N[C@@H](C)C(=O)N[C@@H](CC(N)=O)C(=O)N[C@H](C(N)=O)[C@@H](C)O [Peptide 227] (H-H[Aib]HGS[αMeF]TSDVSK[αMeF]LDSRAAK([AEEA-AEEA-γGlu-C18 diacid])D[αMeF]IA[Aib]IANT-NH2) |
| 0.2 nM | 1.7 | 0.177 nM | CC[C@H](C)[C@H](NC(=O)[C@H](Cc1c[nH]c2ccccc12)NC(=O)[C@H](CCC(N)=O)NC(=O)[C@@H](NC(=O)[C@](C)(Cc1ccccc1)NC(=O)[C@H](CC(=O)O)NC(=O)[C@H](CCCCNC(=O)COCCOCCNC(=O)COCCOCCNC(=O)CC[C@H](NC(=O)CC[C@H](NC(=O)CCCCCCCCCCCCCCCCCCC(=O)O)C(=O)O)C(=O)O)NC(=O)[C@H](C)NC(=O)[C@H](C)NC(=O)[C@H](CCCNC(=N)N)NC(=O)[C@H](CO)NC(=O)[C@H](CC(=O)O)NC(=O)[C@H](CC(C)C)NC(=O)[C@](C)(Cc1ccccc1)NC(=O)[C@H](CCCCN)NC(=O)[C@H](CO)NC(=O)[C@@H](NC(=O)[C@H](CC(=O)O)NC(=O)[C@H](CO)NC(=O)[C@@H](NC(=O)[C@](C)(Cc1ccccc1)NC(=O)[C@H](CO)NC(=O)CNC(=O)[C@H](Cc1c[nH]cn1)NC(=O)C(C)(C)NC(=O)[C@@H](N)Cc1c[nH]cn1)[C@@H](C)O)C(C)C)C(C)C)C(=O)N[C@@H](C)C(=O)N[C@@H](CC(N)=O)C(=O)N[C@H](C(N)=O)[C@@H](C)O [Peptide 228] (H-H[Aib]HGS[αMeF]TSDVSK[αMeF]LDSRAAK([AEEA-AEEA-γGlu-γGlu-C20 diacid])D[αMeF]VQWIANT-NH2; N-terminus assumed) |
| 0.0499 nM | 2.3 | 0.0585 nM | CC[C@H](C)[C@H](NC(=O)C(C)(C)NC(=O)[C@H](CCC(N)=O)NC(=O)[C@@H](NC(=O)[C@](C)(Cc1ccccc1)NC(=O)[C@H](CC(=O)O)NC(=O)[C@H](CCCCNC(=O)COCCOCCNC(=O)COCCOCCNC(=O)CC[C@H](NC(=O)CC[C@H](NC(=O)CCCCCCCCCCCCCCCCC(=O)O)C(=O)O)C(=O)O)NC(=O)[C@H](C)NC(=O)[C@H](C)NC(=O)[C@H](CCCNC(=N)N)NC(=O)[C@H](CO)NC(=O)[C@H](CC(=O)O)NC(=O)[C@H](CC(C)C)NC(=O)[C@](C)(Cc1ccccc1)NC(=O)[C@H](CCCCN)NC(=O)[C@H](CO)NC(=O)[C@@H](NC(=O)[C@H](CC(=O)O)NC(=O)[C@H](CO)NC(=O)[C@@H](NC(=O)[C@](C)(Cc1ccccc1)NC(=O)[C@H](CO)NC(=O)CNC(=O)[C@H](Cc1c[nH]cn1)NC(=O)C(C)(C)NC(=O)[C@@H](N)Cc1c[nH]cn1)[C@@H](C)O)C(C)C)C(C)C)C(=O)N[C@@H](C)C(=O)N[C@@H](CC(N)=O)C(=O)N[C@H](C(N)=O)[C@@H](C)O [Peptide 231] (H-H[Aib]HGS[αMeF]TSDVSK[αMeF]LDSRAAK([AEEA-AEEA-γGlu-γGlu-C18 diacid])D[αMeF]VQ[Aib]IANT-NH2) |
| 0.11 nM | 18.4 | 1.02 nM | CC[C@H](C)[C@H](NC(=O)C(C)(C)NC(=O)[C@H](CCC(N)=O)NC(=O)[C@@H](NC(=O)[C@](C)(Cc1ccccc1)NC(=O)[C@H](CC(=O)O)NC(=O)[C@H](CCCCNC(=O)COCCOCCNC(=O)COCCOCCNC(=O)CC[C@H](NC(=O)CC[C@H](NC(=O)CCCCCCCCCCCCCCCCCCC(=O)O)C(=O)O)C(=O)O)NC(=O)[C@H](C)NC(=O)[C@H](C)NC(=O)[C@H](CCCNC(=N)N)NC(=O)[C@H](CO)NC(=O)[C@H](CC(=O)O)NC(=O)[C@H](CC(C)C)NC(=O)[C@](C)(Cc1ccccc1)NC(=O)[C@H](CCCCN)NC(=O)[C@H](CO)NC(=O)[C@@H](NC(=O)[C@H](CC(=O)O)NC(=O)[C@H](CO)NC(=O)[C@@H](NC(=O)[C@](C)(Cc1ccccc1)NC(=O)[C@H](CO)NC(=O)CNC(=O)[C@H](Cc1c[nH]cn1)NC(=O)C(C)(C)NC(=O)[C@@H](N)Cc1c[nH]cn1)[C@@H](C)O)C(C)C)C(C)C)C(=O)N[C@@H](C)C(=O)N[C@@H](CC(N)=O)C(=O)N[C@H](C(=O)NCC(=O)NCC(N)=O)[C@@H](C)O [Peptide 232] (H-H[Aib]HGS[αMeF]TSDVSK[αMeF]LDSRAAK([AEEA-AEEA-γGlu-γGlu-C20 diacid])D[αMeF]VQ[Aib]IANTGG-NH2; N-terminus assumed) |
| 0.44 nM | 1.8 | 0.407 nM | CC[C@H](C)[C@H](NC(=O)C(C)(C)NC(=O)[C@H](CCC(=O)O)NC(=O)[C@@H](NC(=O)[C@](C)(Cc1ccccc1)NC(=O)[C@H](CC(=O)O)NC(=O)[C@H](CCCCNC(=O)COCCOCCNC(=O)COCCOCCNC(=O)CC[C@H](NC(=O)CC[C@H](NC(=O)CCCCCCCCCCCCCCCCCCC(=O)O)C(=O)O)C(=O)O)NC(=O)[C@H](C)NC(=O)[C@H](C)NC(=O)[C@H](CCCNC(=N)N)NC(=O)[C@H](CO)NC(=O)[C@H](CC(=O)O)NC(=O)[C@H](CC(C)C)NC(=O)[C@](C)(Cc1ccccc1)NC(=O)[C@H](CCCCN)NC(=O)[C@H](CO)NC(=O)[C@@H](NC(=O)[C@H](CC(=O)O)NC(=O)[C@H](CO)NC(=O)[C@@H](NC(=O)[C@](C)(Cc1ccccc1)NC(=O)[C@H](CO)NC(=O)CNC(=O)[C@H](Cc1c[nH]cn1)NC(=O)C(C)(C)NC(=O)[C@@H](N)Cc1c[nH]cn1)[C@@H](C)O)C(C)C)C(C)C)C(=O)N[C@@H](C)C(=O)N[C@@H](CC(N)=O)C(=O)N[C@H](C(N)=O)[C@@H](C)O [Peptide 233] (H-H[Aib]HGS[αMeF]TSDVSK[αMeF]LDSRAAK([AEEA-AEEA-γGlu-γGlu-C20 diacid])D[αMeF]VE[Aib]IANT-NH2; N-terminus assumed) |
| 0.068 nM | 37.4 | 1.29 nM | CC[C@H](C)[C@H](NC(=O)C(C)(C)NC(=O)[C@H](CCC(N)=O)NC(=O)[C@@H](NC(=O)[C@H](Cc1ccccc1)NC(=O)[C@H](CC(=O)O)NC(=O)[C@H](CCCCNC(=O)COCCOCCNC(=O)COCCOCCNC(=O)CC[C@H](NC(=O)CC[C@H](NC(=O)CCCCCCCCCCCCCCCCCCC(=O)O)C(=O)O)C(=O)O)NC(=O)[C@H](C)NC(=O)[C@H](C)NC(=O)[C@H](CCCNC(=N)N)NC(=O)[C@H](CO)NC(=O)[C@H](CC(=O)O)NC(=O)[C@H](CC(C)C)NC(=O)[C@](C)(Cc1ccccc1)NC(=O)[C@H](CCCCN)NC(=O)[C@H](CO)NC(=O)[C@@H](NC(=O)[C@H](CC(=O)O)NC(=O)[C@H](CO)NC(=O)[C@@H](NC(=O)[C@](C)(Cc1ccccc1)NC(=O)[C@H](CO)NC(=O)CNC(=O)[C@H](Cc1c[nH]cn1)NC(=O)C(C)(C)NC(=O)[C@@H](N)Cc1c[nH]cn1)[C@@H](C)O)C(C)C)C(C)C)C(=O)N[C@@H](C)C(=O)N[C@@H](CC(N)=O)C(=O)N[C@H](C(=O)NCC(N)=O)[C@@H](C)O [Peptide 234] (H-H[Aib]HGS[αMeF]TSDVSK[αMeF]LDSRAAK([AEEA-AEEA-γGlu-γGlu-C20 diacid])DFVQ[Aib]IANTG-NH2) |
